In ChEMBL document CHEMBL3046945, “Enantioselective Antifungal Activity of Pefurazoate against Pathogens of Rice Seed Diseases” (J Pestic Sci, 2001):

Columns and labels:
Bipolaris oryzae = experiment: Antifungal activity against Bipolaris oryzae assessed as diameter of mycelial colony after 3 to 4 days by agar dilution method; format: functional, organism-based
Pyricularia oryzae = experiment: Antifungal activity against Magnaporthe oryzae assessed as diameter of mycelial colony after 3 to 4 days by agar dilution method; format: functional, organism-based
Fusarium fujikuroi [1] = experiment: Antifungal activity against benzimidazole-sensitive Fusarium fujikuroi assessed as diameter of mycelial colony after 3 to 4 days by agar dilution method; format: functional, organism-based
Fusarium fujikuroi [2] = experiment: Inhibition of ergosterol biosynthesis in benzimidazole-sensitive Fusarium fujikuroi assessed as incorporation of [2-14C] acetate into 24-methylenedihydrolanosterol at 7.35 ppm by autoradiography; format: functional
Fusarium fujikuroi [3] = experiment: Inhibition of ergosterol biosynthesis in benzimidazole-sensitive Fusarium fujikuroi assessed as incorporation of [2-14C] acetate into total lipids at 7.35 ppm by autoradiography; format: functional
Fusarium fujikuroi [4] = experiment: Inhibition of ergosterol biosynthesis in benzimidazole-sensitive Fusarium fujikuroi assessed as incorporation of [2-14C] acetate into ergosterol at 7.35 ppm by autoradiography; format: functional
Fusarium fujikuroi [5] = experiment: Inhibition of ergosterol biosynthesis in benzimidazole-sensitive Fusarium fujikuroi assessed as incorporation of [2-14C] acetate into lipid fraction at 7.35 ppm by autoradiography; format: functional
Fusarium fujikuroi [6] = experiment: Inhibition of ergosterol biosynthesis in benzimidazole-sensitive Fusarium fujikuroi assessed as incorporation of [2-14C] acetate into ergosterol at 0.24 ppm by autoradiography; format: functional
Fusarium fujikuroi [7] = experiment: Inhibition of ergosterol biosynthesis in benzimidazole-sensitive Fusarium fujikuroi assessed as incorporation of [2-14C] acetate into total lipids at 0.24 ppm by autoradiography; format: functional
Fusarium fujikuroi [8] = experiment: Inhibition of ergosterol biosynthesis in benzimidazole-sensitive Fusarium fujikuroi assessed as incorporation of [2-14C] acetate into 24-methylenedihydrolanosterol at 0.24 ppm by autoradiography; format: functional
Fusarium fujikuroi [9] = experiment: Inhibition of ergosterol biosynthesis in benzimidazole-sensitive Fusarium fujikuroi assessed as incorporation of [2-14C] acetate into lipid fraction at 0.24 ppm by autoradiography; format: functional

Structure (SMILES)	EC50 (Bipolaris oryzae) [ppm]	EC50 (Pyricularia oryzae) [ppm]	EC50 (Fusarium fujikuroi [1]) [ppm]	inhibition at 7.35 ppm (Fusarium fujikuroi [2]) [%]	inhibition at 7.35 ppm (Fusarium fujikuroi [3]) [%]	inhibition at 7.35 ppm (Fusarium fujikuroi [4]) [%]	inhibition at 7.35 ppm (Fusarium fujikuroi [5]) [%]	inhibition at 0.24 ppm (Fusarium fujikuroi [6]) [%]	inhibition at 0.24 ppm (Fusarium fujikuroi [7]) [%]	inhibition at 0.24 ppm (Fusarium fujikuroi [8]) [%]	inhibition at 0.24 ppm (Fusarium fujikuroi [9]) [%]
C=CCCCOC(=O)C(CC)N(Cc1ccco1)C(=O)n1ccnc1 (racemic) [Pefurazoate]	0.84	0.89	0.49	–	–	–	–	–	–	–	–
C=CCCCOC(=O)[C@@H](CC)N(Cc1ccco1)C(=O)n1ccnc1 [(R)-(+)-pefurazoate]	3.89	3.21	7.35	14.2	1.6	1.3	84.5	–	–	–	–
C=CCCCOC(=O)[C@H](CC)N(Cc1ccco1)C(=O)n1ccnc1 [(S)-(-)-pefurazoate]	0.41	0.61	0.24	–	–	–	–	1.3	1.3	13.9	84.8
